Results from ChEMBL document CHEMBL4393671, “Design of a Cyclin G Associated Kinase (GAK)/Epidermal Growth Factor Receptor (EGFR) Inhibitor Set to Interrogate the Relationship of EGFR and GAK in Chordoma” (J Med Chem, 2019).
Activity calls are given as the source filed them. No cut-off for these calls is given here.

How the values were obtained:
cells [1] = assay type: functional, cell-based; settings: Homo sapiens, UCH1, 72 h
Description: Antiproliferative activity against human UCH1 cells measured after 72 hrs by alamar blue assay

cells [2] = assay type: functional, cell-based; settings: Homo sapiens, UCH2, 72 h
Description: Antiproliferative activity against human UCH2 cells measured after 72 hrs by alamar blue assay

[3] = target: T1, Epidermal growth factor receptor (Homo sapiens, UniProt P00533);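 for IC50: human A431 cells pretreated 90 min, then EGF stimulated, sandwich ELISA measured decrease in EGF-induced receptor autophosphorylation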;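 for Kd: KINOMEscan competition binding with recombinant partial wild-type human EGFR (residues R669–V1011) produced in bacteria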
T1 sequence (P00533 whole entry, the tested form may be a part): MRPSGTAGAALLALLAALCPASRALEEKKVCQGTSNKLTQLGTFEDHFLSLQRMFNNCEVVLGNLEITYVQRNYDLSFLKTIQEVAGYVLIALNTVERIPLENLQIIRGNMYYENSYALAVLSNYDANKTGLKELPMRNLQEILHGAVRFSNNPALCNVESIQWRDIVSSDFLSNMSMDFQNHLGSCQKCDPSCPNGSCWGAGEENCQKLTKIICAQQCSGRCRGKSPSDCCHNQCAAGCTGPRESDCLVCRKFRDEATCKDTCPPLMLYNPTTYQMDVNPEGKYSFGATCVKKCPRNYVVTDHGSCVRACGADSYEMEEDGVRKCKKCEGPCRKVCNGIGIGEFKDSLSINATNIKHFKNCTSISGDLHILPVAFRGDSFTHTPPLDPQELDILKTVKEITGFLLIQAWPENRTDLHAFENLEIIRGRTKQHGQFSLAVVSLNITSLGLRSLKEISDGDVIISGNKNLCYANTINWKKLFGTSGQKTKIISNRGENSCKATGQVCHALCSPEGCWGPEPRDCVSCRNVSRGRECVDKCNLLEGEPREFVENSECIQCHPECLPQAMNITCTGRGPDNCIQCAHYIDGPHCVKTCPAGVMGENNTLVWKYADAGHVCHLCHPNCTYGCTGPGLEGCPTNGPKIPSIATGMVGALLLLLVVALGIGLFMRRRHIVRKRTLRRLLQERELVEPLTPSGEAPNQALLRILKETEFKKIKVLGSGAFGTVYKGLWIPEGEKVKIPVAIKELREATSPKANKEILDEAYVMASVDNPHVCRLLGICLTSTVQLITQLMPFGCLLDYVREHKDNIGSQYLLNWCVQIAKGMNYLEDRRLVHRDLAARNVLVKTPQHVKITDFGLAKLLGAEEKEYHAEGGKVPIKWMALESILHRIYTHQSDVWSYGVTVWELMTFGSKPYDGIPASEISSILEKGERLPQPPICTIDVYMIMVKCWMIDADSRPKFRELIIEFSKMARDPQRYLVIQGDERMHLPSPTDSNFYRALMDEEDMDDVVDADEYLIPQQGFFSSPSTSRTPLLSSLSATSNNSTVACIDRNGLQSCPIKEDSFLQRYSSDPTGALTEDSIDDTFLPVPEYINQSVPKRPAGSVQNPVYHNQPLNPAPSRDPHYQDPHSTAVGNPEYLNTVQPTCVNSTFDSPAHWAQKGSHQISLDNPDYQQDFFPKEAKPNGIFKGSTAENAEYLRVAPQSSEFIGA
Description: Binding affinity to wild-type human partial length EGFR (R669 to V1011 residues) expressed in bacterial expression system by Kinomescan method

cells [4] = assay type: ADME, cell-based; settings: Homo sapiens, WS1, 72 h
Description: Cytotoxicity against human WS1 cells measured after 72 hrs by alamar blue assay

[5] = target: T1, Epidermal growth factor receptor; assay type: cell-based
Description: Inhibition of EGFR in human A431 cells assessed as reduction in EGF-stimulated EGFR autophosphorylation preincuabted for 90 mins followed by EGF-stimulation by sandwich-ELISA

[6] = target: T2, Cyclin-G-associated kinase (Homo sapiens) (UniProt O14976); assay: Inhibition of tracer 5 binding to human N-terminal nano luciferase-fused GAK expressed in HEK293 cells at 5 uM measured after 2 hrs by nanoBRET assay relative to control; assay type: cell-based
T2 sequence (whole entry): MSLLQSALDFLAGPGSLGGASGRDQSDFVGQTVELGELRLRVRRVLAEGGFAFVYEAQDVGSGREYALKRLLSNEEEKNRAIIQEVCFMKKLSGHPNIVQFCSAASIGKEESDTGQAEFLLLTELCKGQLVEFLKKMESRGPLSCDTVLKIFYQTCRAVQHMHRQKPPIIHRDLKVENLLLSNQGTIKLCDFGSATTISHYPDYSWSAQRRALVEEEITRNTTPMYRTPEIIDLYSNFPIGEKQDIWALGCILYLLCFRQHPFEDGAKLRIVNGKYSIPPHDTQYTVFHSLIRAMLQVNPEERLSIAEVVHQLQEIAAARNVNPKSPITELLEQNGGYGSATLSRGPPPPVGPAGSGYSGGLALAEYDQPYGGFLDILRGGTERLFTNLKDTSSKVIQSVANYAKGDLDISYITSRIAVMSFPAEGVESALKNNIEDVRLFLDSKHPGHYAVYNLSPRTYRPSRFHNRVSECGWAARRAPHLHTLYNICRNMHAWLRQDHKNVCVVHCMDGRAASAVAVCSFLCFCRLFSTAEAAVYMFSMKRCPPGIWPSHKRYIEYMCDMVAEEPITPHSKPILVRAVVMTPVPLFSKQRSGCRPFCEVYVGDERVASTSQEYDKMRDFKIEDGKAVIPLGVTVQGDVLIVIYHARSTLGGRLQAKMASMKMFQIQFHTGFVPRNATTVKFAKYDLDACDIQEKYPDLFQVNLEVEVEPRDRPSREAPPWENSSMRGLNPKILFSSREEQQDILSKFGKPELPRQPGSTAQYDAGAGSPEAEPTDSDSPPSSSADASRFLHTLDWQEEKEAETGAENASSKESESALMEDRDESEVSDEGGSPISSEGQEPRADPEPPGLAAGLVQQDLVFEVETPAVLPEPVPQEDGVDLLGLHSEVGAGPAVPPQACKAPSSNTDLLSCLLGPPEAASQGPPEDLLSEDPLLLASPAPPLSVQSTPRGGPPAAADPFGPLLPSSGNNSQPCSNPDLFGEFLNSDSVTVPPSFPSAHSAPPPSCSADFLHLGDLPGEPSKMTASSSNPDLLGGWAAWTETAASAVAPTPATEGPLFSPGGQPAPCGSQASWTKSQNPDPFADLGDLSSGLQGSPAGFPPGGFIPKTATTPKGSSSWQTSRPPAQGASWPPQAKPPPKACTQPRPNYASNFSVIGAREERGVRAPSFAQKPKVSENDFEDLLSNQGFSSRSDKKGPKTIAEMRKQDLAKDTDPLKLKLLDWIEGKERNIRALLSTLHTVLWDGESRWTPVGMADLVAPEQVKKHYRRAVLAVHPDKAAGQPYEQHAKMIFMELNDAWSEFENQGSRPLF

[7] = target: T3, Cyclin-G-associated kinase (Homo sapiens, UniProt O14976); assay: Binding affinity to wild-type human partial length GAK (G13 to Y338 residues) expressed in bacterial expression system by Kinomescan method
T3 sequence (O14976 whole entry): T2 sequence (whole entry)

cells [8] = assay type: functional, cell-based; settings: Homo sapiens, 72 h
Description: Antiproliferative activity against human UCH12 cells measured after 72 hrs by alamar blue assay

cells [9] = assay type: functional, cell-based; settings: Homo sapiens, 72 h; remark: listed apart in the source
Description: Antiproliferative activity against human UMCHOR1 cells measured after 72 hrs by alamar blue assay

[10] = target: T3, Cyclin-G-associated kinase; assay: Inhibition of tracer 5 binding to human N-terminal nano luciferase-fused GAK expressed in HEK293 cells measured after 2 hrs by nanoBRET assay; assay type: cell-based
cells [11] = assay type: functional, cell-based; settings: Homo sapiens, 72 h; remark: listed apart in the source
Description: Antiproliferative activity against human UCH14 cells measured after 72 hrs by alamar blue assay

cells [12] = assay type: functional, cell-based; settings: Homo sapiens, 72 h; remark: listed apart in the source
Description: Antiproliferative activity against human CH22 cells measured after 72 hrs by alamar blue assay

cells [13] = assay type: functional, cell-based; settings: Homo sapiens, 72 h; remark: listed apart in the source
Description: Antiproliferative activity against human UCH7 cells measured after 72 hrs by alamar blue assay

[14] = target: T1, Epidermal growth factor receptor; assay: Inhibition of EGFR in human UCH1 cells assessed as reduction in EGF-induced EGFR phosphorylation at Y1068 residue at 1 uM preincubated for 4 hrs followed by EGF--stimulation and measured after 15 mins by Western blot analysis relative to control; assay type: cell-based
[15] = target: T2, Cyclin-G-associated kinase (Homo sapiens); assay: Binding affinity to GAK in human SUM159 cell lysates by multiplexed inhibitor bead profiling-based LC-MS/MS analysis; assay type: subcellular; settings: Lysate
[16] = Effect on total EGFR expression in human UCH2 cells at 1 to 10 uM measured after 4 hrs by Western blot analysis; assay type: ADME, cell-based
[17] = Effect on total EGFR expression in human UCH1 cells at 1 to 10 uM measured after 4 hrs by Western blot analysis; assay type: ADME, cell-based
[18] = target: T1, Epidermal growth factor receptor; assay: Inhibition of EGFR in human UCH1 cells assessed as reduction in EGF-induced EGFR phosphorylation at Y1068 residue at 10 uM preincubated for 4 hrs followed by EGF--stimulation and measured after 15 mins by Western blot analysis relative to control; assay type: cell-based
[19] = target: T1, Epidermal growth factor receptor; assay: Inhibition of EGFR in human UCH2 cells assessed as reduction in EGF-induced EGFR phosphorylation at Y1068 residue at 1 uM preincubated for 4 hrs followed by EGF--stimulation and measured after 15 mins by Western blot analysis relative to control; assay type: cell-based
[20] = target: T1, Epidermal growth factor receptor; assay: Inhibition of EGFR in human UCH2 cells assessed as reduction in EGF-induced EGFR phosphorylation at Y1068 residue at 10 uM preincubated for 4 hrs followed by EGF--stimulation and measured after 15 mins by Western blot analysis relative to control; assay type: cell-based

Row | SMILES | IC50 (cells [1]) | IC50 (cells [2]) | Kd [3] | IC50 (cells [4]) | IC50 [5] | Kd [7] | IC50 [10] | further results
1 | COc1cc2ncnc(Nc3ccc(OCc4cccc(F)c4)c(Cl)c3)c2cc1OC | 13 µM | > 50 µM | 1.3 nM | > 10 µM | < 0.015 µM | 5000 nM | – | inhibition [6]: 12%
2 | CC(C)(C)S(=O)(=O)c1cc2c(Nc3ccc4scnc4c3)ncnc2cc1OCCO | > 50 µM | 30 µM | – | > 50 µM | > 50 µM | – | – | inhibition [6]: 0%
3 | COc1cc(Nc2c(C#N)cnc3cc(OCCCN4CCN(C)CC4)c(OC)cc23)c(Cl)cc1Cl [BOSUTINIB] | 15 µM | 36 µM | – | – | – | – | – | –
4 | COc1cc2nccc(Nc3cc(OC)c(OC)c(OC)c3)c2cc1OC | 11 µM | 25 µM | 410 nM | 14 µM | 27 µM | – | 23 nM | IC50 (cells [8]): 33 µM; IC50 (cells [9]): 24 µM; IC50 (cells [11]): 19 µM; IC50 (cells [12]): 12 µM; IC50 (cells [13]): 30 µM
5 | COc1cc2ncc(C#N)c(Nc3cc(OC)c(OC)c(OC)c3)c2cc1OC | 11 µM | > 10 µM | 7.4 nM | > 50 µM | 7.1 µM | 0.42 nM | 2.4 nM | –
6 | C#Cc1cccc(Nc2ccnc3cc(OCCOC)c(OCCOC)cc23)c1 | 7.6 µM | 16 µM | 390 nM | 12 µM | 0.34 µM | 1200 nM | – | –
7 | COc1cc2ncc(C#N)c(Nc3cccc(Br)c3)c2cc1OC | 8.8 µM | > 50 µM | 2.4 nM | 14 µM | 0.09 µM | 12 nM | 130 nM | –

The next compounds have a lower IC50 (cells [1]) than those just listed; values first:

Row | IC50 (cells [1]) | IC50 (cells [2]) | Kd [3] | IC50 (cells [4]) | IC50 [5] | Kd [7] | IC50 [10] | SMILES | further results
8 | 0.1 µM | 6.4 µM | – | – | – | – | – | CN(C)C/C=C/C(=O)Nc1cc2c(Nc3ccc(F)c(Cl)c3)ncnc2cc1O[C@H]1CCOC1 [AFATINIB] | –
9 | 1 µM | 4.2 µM | – | – | – | – | – | COc1cc2/c(=N/c3ccc(Br)cc3F)nc[nH]c2cc1OCC1CCN(C)CC1 [VANDETANIB] | –
10 | 0.11 µM | 8.1 µM | – | – | – | – | – | C=CC(=O)N1CCC(Oc2cc3c(Nc4ccc(Cl)c(Cl)c4F)ncnc3cc2OC)CC1 [POZIOTINIB] | –
11 | 7.3 µM | > 10 µM | – | 28 µM | – | 10 nM | 350 nM | COc1cc2ncnc(Nc3cc(OC)c(OC)c(OC)c3)c2cc1OC | –
12 | 0.66 µM | 26 µM | – | 9.7 µM | – | – | 260 nM | COc1cc2ncnc(Nc3cccc(Br)c3)c2cc1OC | –
13 | 0.15 µM | 1.1 µM | – | – | – | – | – | COc1cc2c(Nc3ccc(Cl)c(Cl)c3F)ncnc2cc1OC[C@@H]1C[C@@H]2CN(C)C[C@@H]2C1 [TESEVATINIB] | –
14 | 0.92 µM | > 50 µM | 0.55 nM | 4.4 µM | – | 6.8 nM | 72 nM | C#Cc1cccc(Nc2ncnc3cc(OC)c(OC)cc23)c1 | inhibition [14]: 63.4%; IC50 (cells [8]): > 50 µM; IC50 (cells [9]): 18 µM; Activity [15]: Active; Activity [16]: Non-Toxic; IC50 (cells [11]): > 50 µM; Activity [17]: Non-Toxic; IC50 (cells [12]): > 50 µM; IC50 (cells [13]): 23 µM; inhibition [18]: 100%; inhibition [19]: 100%; inhibition [20]: 100%
